Among the data in patent publication US8937065B2, “Compositions and methods for modulating a kinase” (Clevexel Pharma, priority 2011, dated 2015) are Emax, IC50 and Ki values, retold here.

Read-outs that look alike come from different tables or passages of the source.

For assay [1], the system named is JAK3 pathway. Nature of the assay: Cell based JAK3 pathway inhibition (STAT6-bla RA1 cells, IL-4 activated). Conditions: for Emax: cell based JAK3 pathway inhibition, maximal inhibition, read-out: Max % Inh; for IC50: STAT6-bla RA1 cells, IL-4 at EC80. As to the method: 32 μL of the cell suspension (25,000 cells) was added to each well of a 384-well TC-Treated assay plate. Cells in Assay Media were incubated for 16-24 hours in the plate at 37° C./5% CO2 in a humidified incubator. 4 μL of a 10× serial dilution of a compound of the invention was added to appropriate wells of the plate and pre-incubated at 37° C./5% CO2 in a humidified incubator with cells for 30 minutes. 4 μL of 10× control activator IL-4 at the predetermined EC80 concentration was added to wells containing the compound of the invention. The plate was incubated for 5 hours at 37° C./5% CO2 in a humidified incubator. 8 μL of 1 μM Substrate Loading Solution was added to each well and the plate was incubated for 2 hours at room temperature. The plate was read on a fluorescence plate reader.

Assay [2] has as its target T1, JAK3 (Homo sapiens, UniProt P52333).
T1 construct: purchased Invitrogen, Madison, Wis
T1 sequence (P52333 1-1124): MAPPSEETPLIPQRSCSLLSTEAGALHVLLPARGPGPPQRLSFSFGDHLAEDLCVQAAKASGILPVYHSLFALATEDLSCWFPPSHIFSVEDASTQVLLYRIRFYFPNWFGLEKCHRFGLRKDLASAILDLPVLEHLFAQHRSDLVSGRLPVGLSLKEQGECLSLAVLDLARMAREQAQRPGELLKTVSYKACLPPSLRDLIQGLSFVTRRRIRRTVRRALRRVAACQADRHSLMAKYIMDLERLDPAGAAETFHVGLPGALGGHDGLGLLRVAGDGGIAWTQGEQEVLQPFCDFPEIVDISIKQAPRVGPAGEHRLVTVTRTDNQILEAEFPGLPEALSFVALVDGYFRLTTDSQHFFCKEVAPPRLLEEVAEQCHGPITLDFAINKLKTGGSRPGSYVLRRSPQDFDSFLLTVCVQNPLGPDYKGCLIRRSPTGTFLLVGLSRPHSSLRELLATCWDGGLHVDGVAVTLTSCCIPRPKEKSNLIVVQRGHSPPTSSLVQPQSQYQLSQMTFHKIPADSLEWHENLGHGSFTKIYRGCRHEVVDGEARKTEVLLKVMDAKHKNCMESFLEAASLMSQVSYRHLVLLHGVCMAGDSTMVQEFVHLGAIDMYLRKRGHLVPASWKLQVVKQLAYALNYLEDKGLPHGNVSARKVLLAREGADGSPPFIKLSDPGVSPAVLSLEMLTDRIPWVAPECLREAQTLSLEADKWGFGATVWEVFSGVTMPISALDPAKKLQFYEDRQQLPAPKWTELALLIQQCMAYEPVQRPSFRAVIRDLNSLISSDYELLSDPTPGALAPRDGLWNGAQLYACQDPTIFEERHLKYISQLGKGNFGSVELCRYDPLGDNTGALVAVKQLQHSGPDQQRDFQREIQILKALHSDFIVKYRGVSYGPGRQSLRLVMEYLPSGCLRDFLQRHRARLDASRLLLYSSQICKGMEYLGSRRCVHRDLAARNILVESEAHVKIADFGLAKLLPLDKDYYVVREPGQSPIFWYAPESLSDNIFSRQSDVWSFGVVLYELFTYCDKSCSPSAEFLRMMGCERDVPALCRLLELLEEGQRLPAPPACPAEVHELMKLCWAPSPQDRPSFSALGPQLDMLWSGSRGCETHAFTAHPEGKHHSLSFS
Nature of the assay: JAK3 enzymatic activity assay (Z'-LYTE Biochemical Kinase Assay, 2 hr preincubation at 4° C.). Conditions: cell free, 1% DMSO, read-out: JAK3 activity cell free (2 hr preincubation at (4° C.) Kj). Here is the method: The assays were performed according to manufacturer's protocols, except that prior to the kinase reaction they were pre-incubated for 2 hours at 4° C., in order to be able to assay for time-dependent inhibition.
In addition to the compound, each 10 μL JAK3 kinase reaction contained 0.43-1.89 ng JAK3 and 2 μM peptide substrate in 50 mM HEPES (pH 7.5), 0.01% BRIJ-35, 10 mM MgCl2 and 1 mM EGTA. The kinase reaction was allowed to proceed for 1 hour.

Assay [3] deals with Daudi cells. Put plainly: Daudi CTG assay (Daudi proliferation, 72 hr, Cell Titer Glo). The class given is cell-based. Conditions: Homo sapiens. Here is the method: The compounds of the invention were tested on Daudi proliferation according to the procedure in Example 4 (for Daudi cells): Proliferation of RS4; 11, Ramos, Namalwa, RL, Molt-4 and Daudi cells. The compounds of the invention were tested on Daudi proliferation (72 hr), 3 fold dilution, and 9 points in duplicates. The top concentration for compounds of the invention was 10 uM; reference compound 7A top concentration was 10 uM; and Paclitaxel was 500 nM. Cell viability was determined using the Cell Titer Glo (CTG) reagent and detected by EnVision. EC50s were calculated by Prism 5.
The CellTiter-Glo™ Luminescent Cell Viability Assay uses ATP, a required co-factor of the luciferase reaction, as an indicator of metabolically active cells. The enzyme luciferase acts on luciferin in the presence of Mg^2+and ATP to produce oxyluciferin and to release energy in the form of luminescence. Since the luciferase reaction requires ATP, the luminescence produced is proportional to the amount of ATP present, an indicator of cellular metabolic activity.
A general note: ATP-based viability assays read luminescence as a measure of living cells.

Where [4] appears, read: Daudi CTG assay, Daudi proliferation 72 hr, Cell Titer Glo, top concentration 10 uM (Paclitaxel 500 nM), read-out: IC50.

On to `O=C(c1cc(-c2csc(NCc3ccco3)n2)c[nH]1)N1CCCC1` [5A], for which the Emax in assay [1] was found to be 68%.

A word on the IC50: it is the point on the concentration scale where inhibition reaches its midpoint. The compound `O=C(c1cc(-c2csc(NCc3ccco3)n2)c[nH]1)N1CCCC1` [6A] gave an IC50 in assay [1] of 1100 to 10000 nM. Also, the Ki in assay [2] was 1100 to 10000 nM.

Turning to `Cc1csc(Cc2nc(-c3c[nH]c(C(=O)N4CCCC4)c3)cs2)n1` [8A], in assay [2], the Ki is 1100 to 10000 nM.

Consider `CCOc1ccc(-c2nc(-c3c[nH]c(C(=O)N4CCCC4)c3)cs2)cc1OC` [9A], for which, in assay [2], the Ki was in the range of 1100 to 10000 nM.

As for `COc1cccc(-c2nc(-c3c[nH]c(C(=O)N4CCCC4)c3)cs2)c1` [10A], in assay [2], the Ki is 1100 to 10000 nM.

For the compound `O=C(c1cc(-c2csc(Nc3ccccc3)n2)c[nH]1)N1CCCC1` [12A], in assay [1], the IC50 was 110 to 1000 nM and the Emax is 81%.

For the compound `O=C(c1cc(-c2csc(Nc3ccc(F)cc3)n2)c[nH]1)N1CCCC1` [13A], in assay [1], the IC50 was in the range of 110 to 1000 nM and the Emax stood at 78%.

Turning to `CC(=O)c1ccc(Nc2nc(-c3c[nH]c(C(=O)N4CCCC4)c3)cs2)cc1` [14A], the Ki in assay [2] was 1100 to 10000 nM.

As for `CN(c1ccccc1)c1nc(-c2c[nH]c(C(=O)N3CCCC3)c2)cs1` [15A], the Ki in assay [2] was greater than 10000 nM.

`O=C(Nc1cccc(-c2nc(-c3c[nH]c(C(=O)N4CCCC4)c3)cs2)c1)c1ccccc1` [16A]: the Ki in assay [2] is greater than 10000 nM.

In assay [1], `CN1CCN(CC(=O)Nc2cccc(-c3nc(-c4c[nH]c(C(=O)N5CCCC5)c4)cs3)c2)CC1` [17A] registered an IC50 of 110 to 1000 nM. Besides, the Ki in assay [2] was greater than 10000 nM.

Turning to `O=C(c1cc(-c2csc(Nc3c(F)cc(F)cc3F)n2)c[nH]1)N1CCCC1` [18A], the Ki in assay [2] fell in the range of 1100 to 10000 nM.

Take `O=C(c1cc(-c2csc(Nc3ccc(N4CCOCC4)cc3)n2)c[nH]1)N1CCCC1` [19A]: the Ki in assay [2] is 1100 to 10000 nM.

With `O=C(CN1CCCCC1)Nc1cccc(-c2nc(-c3c[nH]c(C(=O)N4CCCC4)c3)cs2)c1` [20A], in assay [1], the concentration for half-maximal inhibition (IC50) was 110 to 1000 nM and the Emax amounted to 80.2%.

For the compound `CC(=O)Nc1cccc(-c2nc(-c3c[nH]c(C(=O)N4CCCC4)c3)cs2)c1` [21A], in assay [1], the IC50 lay within 110 to 1000 nM and the Emax was determined as 84.4%.

Consider `O=C(CN1CCOCC1)Nc1ccc(-c2nc(-c3c[nH]c(C(=O)N4CCCC4)c3)cs2)cc1` [22A], for which, in assay [1], the 50% inhibitory concentration (IC50) was 110 to 1000 nM and the Emax is 100%.

On to `CN(C)C(=O)c1cc(-c2csc(-c3cccc(NC(=O)CN4CCOCC4)c3)n2)c[nH]1` [23A], for which, in assay [1], the half-maximal inhibitory concentration (IC50) lay within 1100 to 10000 nM and the Emax turned out to be 75.1%.

Regarding `CN(C)C(=O)c1cc(-c2csc(-c3cccc(NC(=O)CN4CCCCC4)c3)n2)c[nH]1` [24A], in assay [1], the concentration for half-maximal inhibition (IC50) lay in the range of 1100 to 10000 nM and the Emax stood at 74.7%.

In assay [1], `CN1CCN(CC(=O)Nc2cccc(-c3nc(-c4c[nH]c(C(=O)N(C)C)c4)cs3)c2)CC1` [25A] returned an IC50 greater than 10000 nM.

Take `CN(C)CC(=O)Nc1cccc(-c2nc(-c3c[nH]c(C(=O)N4CCCC4)c3)cs2)c1` [26A]: in assay [1], the half-inhibitory concentration (IC50) lay in the range of 110 to 1000 nM and the Emax was found to be 74.6%.

Regarding `O=C(CN1CCOCC1)Nc1cccc(-c2nc(-c3c[nH]c(C(=O)NC4CC4)c3)cs2)c1` [27A], in assay [1], the IC50 was 1100 to 10000 nM and the Emax turned out to be 100%.

In the case of `O=C(Nc1cccc(-c2nc(-c3c[nH]c(C(=O)N4CCCC4)c3)cs2)c1)N1CCOCC1` [28A], in assay [1], the IC50 is 110 to 1000 nM and the Emax stood at 82.3%.

With `NC(=O)c1cc(-c2csc(-c3cccc(NC(=O)CN4CCOCC4)c3)n2)c[nH]1` [29A], the IC50 in assay [1] and in assay [3] (setting [4]) was greater than 10000 nM each time.

Consider `CCN(CC)C(=O)c1cc(-c2csc(-c3cccc(NC(=O)CN4CCOCC4)c3)n2)c[nH]1` [30A], for which the IC50 in assay [1] and in assay [3] (setting [4]) was 1100 to 10000 nM each time. Also, the Emax in assay [1] was 98.2%.

As to `O=C(CN1CCOCC1)Nc1ccc(-c2nc(-c3c[nH]c(C(=O)N4CCCCC4)c3)cs2)cc1` [31A], in assay [1], the concentration for half-maximal inhibition (IC50) was in the range of 1100 to 10000 nM and the Emax was determined as 76.8%. For the same compound, in assay [3] (setting [4]), the IC50 fell in the range of 1100 to 10000 nM.

As for `COc1ccc(-c2nc(-c3c[nH]c(C(=O)N4CCCC4)c3)cs2)cc1NC(=O)CN1CCOCC1` [32A], in assay [1], the IC50 lay in the range of 110 to 1000 nM and the Emax worked out at 71.7%. Also, the IC50 in assay [3] (setting [4]) was 110 to 1000 nM.

Turning to `COc1ccc(-c2nc(-c3c[nH]c(C(=O)N4CCCC4)c3)cs2)cc1NC(=O)CN1CCCCC1` [33A], the half-maximal inhibitory concentration (IC50) in assay [1] and in assay [3] (setting [4]) was 110 to 1000 nM in each case. Besides, the Emax in assay [1] came to 69.8%.

With `CCN(CC)CC(=O)Nc1cc(-c2nc(-c3c[nH]c(C(=O)N4CCCC4)c3)cs2)ccc1OC` [34A], in assay [1], the IC50 was in the range of 110 to 1000 nM and the Emax amounted to 79.7%. The IC50 in assay [3] (setting [4]) lay in the range of 110 to 1000 nM.

As to `O=C(CN1CCOCC1)Nc1cc(-c2nc(-c3c[nH]c(C(=O)N4CCCC4)c3)cs2)ccc1F` [35A], in assay [1], the IC50 was in the range of 110 to 1000 nM and the Emax is 78.9%. For the same compound, in assay [3] (setting [4]), the IC50 was 110 to 1000 nM.

Consider `O=C(c1cc(-c2csc(Nc3cccc(C(F)(F)F)c3)n2)c[nH]1)N1CCCC1` [39A], for which the Ki in assay [2] was 1100 to 10000 nM.

In the case of `O=C(c1cc(-c2csc(NC3CCCC3)n2)c[nH]1)N1CCCC1` [45A], in assay [2], the Ki is 1100 to 10000 nM.

As to `O=C(c1cc(-c2csc(NCc3ccc(F)cc3)n2)c[nH]1)N1CCCC1` [47A], the Ki in assay [2] was in the range of 1100 to 10000 nM.

On to `O=C(c1cc(-c2csc(-c3ccccn3)n2)c[nH]1)N1CCCC1` [53A], for which, in assay [1], the IC50 was in the range of 110 to 1000 nM and the Emax was determined as 72%.

As to `O=C(c1cc(-c2csc(-c3ccc(Cl)cc3)n2)c[nH]1)N1CCCC1` [61A], in assay [1], the IC50 lay within 110 to 1000 nM and the Emax was 60%.

With `Cc1ccc(-c2nc(-c3c[nH]c(C(=O)N4CCCC4)c3)cs2)c(C)c1` [63A], in assay [1], the IC50 lay in the range of 110 to 1000 nM and the Emax was found to be 63%.

`Cc1ccccc1-c1nc(-c2c[nH]c(C(=O)N3CCCC3)c2)cs1` [64A]: the Ki in assay [2] was in the range of 1100 to 10000 nM.

Turning to `CC(=O)O[C@H]1C(=O)[C@@]2(C)[C@H]([C@H](OC(=O)c3ccccc3)[C@]3(O)C[C@H](OC(=O)[C@H](O)[C@@H](NC(=O)c4ccccc4)c4ccccc4)C(C)=C1C3(C)C)[C@]1(OC(C)=O)CO[C@@H]1C[C@@H]2O` [Paclitaxel, paclitaxel, reference compound], the IC50 in assay [3] (Daudi, read-out: Daudi CTG assay IC50, historical data) was 4.69 nM; in assay [3] (Daudi proliferation 72 hr, control compounds, read-out: Daudi CTG assay control IC50), 4.5 nM.
